One data set deals with T1, TRβ (Homo sapiens, UniProt P10828).
T1 sequence (P10828 1-461): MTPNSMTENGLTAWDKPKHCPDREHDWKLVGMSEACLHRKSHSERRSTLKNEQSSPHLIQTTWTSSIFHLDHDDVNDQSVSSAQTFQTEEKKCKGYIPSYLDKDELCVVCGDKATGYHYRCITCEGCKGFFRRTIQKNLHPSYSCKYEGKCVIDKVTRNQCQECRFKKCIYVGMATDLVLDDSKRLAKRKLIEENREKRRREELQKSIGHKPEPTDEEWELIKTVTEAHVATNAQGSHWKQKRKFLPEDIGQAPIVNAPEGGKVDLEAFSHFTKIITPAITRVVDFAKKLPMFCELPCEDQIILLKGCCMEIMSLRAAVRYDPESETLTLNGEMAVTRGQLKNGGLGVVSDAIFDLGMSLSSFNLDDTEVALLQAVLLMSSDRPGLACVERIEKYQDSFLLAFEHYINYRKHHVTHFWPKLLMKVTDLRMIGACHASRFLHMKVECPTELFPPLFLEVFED
Nature of the data set: Gel retardation DNA-binding assay with TRβ-expressing COS cell extracts. The following applies: for competition for TRβ binding (mobility shift assay): unlabeled competitor oligonucleotide, COS cells expressing TRβ; for TRβ binding to labeled oligonucleotide probe: gel retardation, TRβ COS cell extract. More on the design: expressed in transfected cells; host or cells: COS cells (whole-cell extract). Summed up: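 Extracts of COS cells transfected with pCMX TRβ expression plasmid, 48 h post-transfection; 5 μg protein pre-incubated on ice 20 min with poly dI/dC, then 40 fmole 32P-labelled oligonucleotide 30 min at room temperature. Complexes resolved on 5% polyacrylamide gel.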

A further data set deals with T2, RARα (Homo sapiens, UniProt P10276).
T2 sequence (P10276 1-462): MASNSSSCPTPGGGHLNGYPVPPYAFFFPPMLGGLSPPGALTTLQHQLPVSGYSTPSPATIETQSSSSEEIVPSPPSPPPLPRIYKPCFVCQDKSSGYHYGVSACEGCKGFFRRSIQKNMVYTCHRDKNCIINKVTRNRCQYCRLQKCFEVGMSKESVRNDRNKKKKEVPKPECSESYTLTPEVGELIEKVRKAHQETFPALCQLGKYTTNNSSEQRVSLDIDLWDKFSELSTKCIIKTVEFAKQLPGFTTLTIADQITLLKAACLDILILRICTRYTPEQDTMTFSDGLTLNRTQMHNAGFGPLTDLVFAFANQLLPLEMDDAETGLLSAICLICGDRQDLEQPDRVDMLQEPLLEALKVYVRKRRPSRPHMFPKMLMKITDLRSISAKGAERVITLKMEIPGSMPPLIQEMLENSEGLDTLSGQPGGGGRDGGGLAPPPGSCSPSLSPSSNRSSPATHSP
The data set is described as follows: Gel retardation DNA-binding assay with RARα-expressing COS cell extracts. The following applies: unlabeled competitor oligonucleotide; COS cell extracts. Details: expressed in transfected cells; host or cells: COS cells (whole-cell extract). As for the experimental part:
For DNA binding assays, COS cells were cultured in DMEM with 10% calf bovine serum and transfected by the calcium phosphate method with 20 μg of the pCMX receptor expression plasmid for 6 hours followed by a glycerol shock. After incubating the transfected COS cells for another 48 hours, the cells were harvested to prepare extracts for the DNA binding assay, carried out as described by Damm et al., Nature 339: 593-597 (1989). The extracts were made in 20 mM HEPES (pH 7.4), 0.4 M KCl, 2 mM DTT and 20% glycerol. A similar method was employed to prepare a whole cell extract from F9 stem cells. For the binding, 5 μg (COS) or 10 μg (F9) of proteins was incubated on ice for 20 minutes, first in 20 mM HEPES, 80 mM KCl, 1 mM DTT, 0.1% NP40, 2.5 μg of poly dI/dC, and 10% glycerol (cold competitor oligonucleotides, when included, were added during this pre-incubation period). Then 40 fmole of ^32P-labeled oligonucleotide probe (1-2×10^5 cpm, prepared by filling-in reaction using Klenow polymerase in the presence of α-^32P-dCTP) was added to the reaction mixture, followed by incubation at room temperature for 30 minutes. The receptor-DNA complexes were resolved by electrophoresis through 5% polyacrylamide gel containing 5% glycerol at 6 V/cm at room temperature.
Oligonucleotides listed in FIG. 3 were used as a probe to test specific DNA-binding of the RARα and TRβ in a gel retardation assay. On the βRARE, a faint background binding activity was detected in the mock transfected COS cell extract. […] In each case the result obtained from in vivo transactivation and in vitro DNA binding are consistent.
Using the mobility shift assay, the DNA-binding capacity of extracts from COS cells expressing TRβ and RARα to these sequences was also tested. […] This pattern is consistent with that of the in vivo activation (FIG. 4). A reciprocal pattern was obtained when the same oligonucleotides were used to compete RARα binding to the ^32P-labeled βRARE. […] This provides a striking example of the role of half-site spacing in generating a functional response element.

Turning to “TREp: optimized palindromic rat growth hormone TRE (SEQ ID NO:10) (AGCTTCAGGTCATGACCTGAGAGCT; DNA, backbone not given here; double-stranded response element with agct overhangs, cloned into reporter plasmid) [reference compound]”, the “competition for TRβ binding (mobility shift assay)” value in the data set with TRβ is reported as “efficient competition”. For the same substance, the “competition for RARα binding to 32P-labeled βRARE” value in the data set with RARα is reported as “effective competitors”.
For the substance “MHC-N: 23-nucleotide core of the wild-type sequence (MHC-TRE) (SEQ ID NO:14) (AGCTGGAGGTGACAGGAGGACAGCAAGCT; DNA, backbone not given here; further chemistry not fully specified)”, the “competition for TRβ binding to 32P-labeled MHC-N” value with TRβ (50-fold excess of unlabeled oligonucleotide, COS cell extracts) was “competed”. In the data set with TRβ, the “TRβ binding to labeled oligonucleotide probe” value is “specific binding” and the “competition for TRβ binding (mobility shift assay)” value was “efficient competition”. Besides, in the data set with TRβ (listed as MHC-TRE), the “TRβ binding to labeled oligonucleotide probe” value is reported as “high affinity”. Moreover, in the data set with RARα, the “competition for RARα binding to 32P-labeled βRARE” value is “fails to compete at all”.
